Laboratory results from article PMC12700550, “DLL4^+ neutrophils promote Notch1-mediated endothelial PANoptosis to exacerbate acute lung injury in sepsis” (The Journal of Clinical Investigation, 2025).
Values joined by “and” are separate entries in the source; they are usually repeats but may differ in a detail not shown here. Equal entries are not always repeated.

Columns and labels:
Format in all cases: in vivo, mouse
ZBP1 = ZBP1 protein in lungs of CLP mice, Western blot; conditions: 10 mg/kg NDI, 20 h; for lung ZBP1 protein (Figure 5B): individual mice, 10 mg/kg
Experimental: (§1) Sepsis was induced in mice by cecal ligation and puncture (CLP) as described previously ([45], [46]). Mice were anesthetized with isoflurane to a surgical plane and placed in a supine position. CLP was performed through a midline laparotomy. The abdomen was shaved and disinfected. Through a 2 cm midline incision, the cecum was exposed and then ligated with a 4-0 silk suture 1 cm proximal from the distal cecal extremity. For 20-hour CLP experiments, the cecum was punctured twice with a 22-gauge needle. A small amount of cecal content was extruded through both holes, and the ligated cecum was returned to the peritoneal cavity. The wound was closed in layers. For 10-day sepsis survival studies, the cecum was punctured once with a 22-gauge needle. A small amount of cecal content was extruded. Mice were allocated to the vehicle and adoptive transfer of DLL4^+ neutrophils or DLL4^– neutrophils groups. Adoptive transfer mice received a retro-orbital injection of 1 × 10^6 cells per mouse DLL4^+ neutrophils or DLL4^– neutrophils in […] phosphate-buffered saline (PBS) immediately after abdominal closure in both the 20-hour experiments and the survival study. Vehicle groups received an equivalent volume of PBS, while treatment groups received NDI 10 mg/kg in […] PBS via retro-orbital injection after CLP. This dose was chosen primarily on the basis of our laboratory’s prior experience, we have consistently used this dose in mouse CLP models with reproducible efficacy and without observable toxicity ([39], [44]). Sham-operated animals underwent a laparotomy without CLP. After closure, the mice received a subcutaneous injection of 0.5 mL of normal saline to overcome surgery-induced dehydration. […]
(§2) PVECs and lung tissue were collected in previous steps. Whole-cell proteins were extracted, and the protein concentration was measured using an ABC protein assay kit (catalog 5000002, Bio-Rad). […] Bands were detected using an Odyssey FC Dual-Mode Imaging system 2800 (LI-COR).

C57BL/6 mice, CLP sepsis [1] = test: Lung injury score (H&E), CLP mice; conditions: 20 h; for lung injury score (Figure 6J): 10 mg/kg NDI, score 0 to 1, individual values
Experimental: Sepsis was induced in mice by cecal ligation and puncture (CLP) as described previously ([45], [46]). Mice were anesthetized with isoflurane to a surgical plane and placed in a supine position. CLP was performed through a midline laparotomy. The abdomen was shaved and disinfected. Through a 2 cm midline incision, the cecum was exposed and then ligated with a 4-0 silk suture 1 cm proximal from the distal cecal extremity. […] A small amount of cecal content was extruded through both holes, and the ligated cecum was returned to the peritoneal cavity. The wound was closed in layers. […] A small amount of cecal content was extruded. […] Vehicle groups received an equivalent volume of PBS, while treatment groups received NDI 10 mg/kg in […] PBS via retro-orbital injection after CLP. This dose was chosen primarily on the basis of our laboratory’s prior experience, we have consistently used this dose in mouse CLP models with reproducible efficacy and without observable toxicity ([39], [44]). Sham-operated animals underwent a laparotomy without CLP. After closure, the mice received a subcutaneous injection of 0.5 mL of normal saline to overcome surgery-induced dehydration. […] All mice were subcutaneously injected with a single dose of 0.1 mg/kg buprenorphine after CLP. Lung tissues were fixed in 10% formalin before being embedded in paraffin. Blocks were cut into 5 μm sections and stained with H&E. Slides were evaluated under light microscopy to assess the degree of lung injury. Scoring was done using a system created by the American Thoracic Society ([47]). Scores ranged from 0 to 1 and were based on proteinaceous debris in the airspaces, the degree of septal thickening, and neutrophil infiltration in the alveolar and interstitial spaces. The average score per field was calculated at ×200 original magnification.

C57BL/6 mice, CLP sepsis [2] = test: Serum lactate dehydrogenase (LDH), CLP mice; parameters: serum LDH (Figure 6C): unit not given here; conditions: 20 h; for serum LDH (Figure 6C): 10 mg/kg NDI, individual mice
Experimental: (§3) Sepsis was induced in mice by cecal ligation and puncture (CLP) as described previously ([45], [46]). Mice were anesthetized with isoflurane to a surgical plane and placed in a supine position. CLP was performed through a midline laparotomy. The abdomen was shaved and disinfected. Through a 2 cm midline incision, the cecum was exposed and then ligated with a 4-0 silk suture 1 cm proximal from the distal cecal extremity. […] A small amount of cecal content was extruded through both holes, and the ligated cecum was returned to the peritoneal cavity. The wound was closed in layers. […] A small amount of cecal content was extruded. […] Vehicle groups received an equivalent volume of PBS, while treatment groups received NDI 10 mg/kg in […] PBS via retro-orbital injection after CLP. This dose was chosen primarily on the basis of our laboratory’s prior experience, we have consistently used this dose in mouse CLP models with reproducible efficacy and without observable toxicity ([39], [44]). Sham-operated animals underwent a laparotomy without CLP. After closure, the mice received a subcutaneous injection of 0.5 mL of normal saline to overcome surgery-induced dehydration. […] All mice were subcutaneously injected with a single dose of 0.1 mg/kg buprenorphine after CLP. Serum levels of alanine aminotransferase, aspartate aminotransferase, and lactate dehydrogenase were determined using specific colorimetric enzymatic assays (Pointe Scientific Inc.) according to the manufacturer’s instructions.

C57BL/6 mice, CLP sepsis [3] = test: Serum aspartate aminotransferase (AST), CLP mice; parameters: serum AST (Figure 6B): unit not given here; conditions: 20 h; for serum AST (Figure 6B): 10 mg/kg NDI, individual mice
Experimental: as §3

p-MLKL = test: p-MLKL/MLKL in lungs of CLP mice, Western blot; conditions: 10 mg/kg NDI, 20 h; for lung p-MLKL/MLKL (Figure 5F): individual mice, 10 mg/kg
Experimental: as §1, §2

[4] = DLL4^+ neutrophil-injected CLP mice, 10 mg/kg

For ECAGSPCHNGGTCEDGI [NDI], which “lung ZBP1 protein (Figure 5B)” value (ZBP1; DLL4^+ neutrophils + CLP) is on record?
The value was 0.846 and 0.9823 and 0.8189 and 0.8666 and 0.6492 and 0.9798 and 0.8814.

What about the “effect on lung ZBP1 protein” value (ZBP1; DLL4^+ neutrophils/sepsis) of the same sequence?
Its value is “effectively decreased ZBP1 expression”.

And the “lung ZBP1 protein (Figure 5B)” value (ZBP1; DLL4^– neutrophils + CLP)?
Its value is 1.332 and 0.9583 and 0.9668.

And the “effect on lung injury” value (C57BL/6 mice, CLP sepsis [1]; [4])?
Its value is “significantly lower lung injury scores”.

And the “lung injury score (Figure 6J)” value (C57BL/6 mice, CLP sepsis [1]; DLL4^+ neutrophils + CLP)?
The value was 0.52 and 0.49 and 0.54 and 0.51 and 0.53.

And the “lung injury score (Figure 6J)” value (C57BL/6 mice, CLP sepsis [1]; DLL4^– neutrophils + CLP)?
The value was 0.58 and 0.44 and 0.52 and 0.48 and 0.54.

What about the “effect on serum LDH” value (C57BL/6 mice, CLP sepsis [2]; [4]) of the same sequence?
The value was “significantly reduced the serum levels of hepatic and cell injury markers and proinflammatory cytokines”.

What about the “serum LDH (Figure 6C)” value (C57BL/6 mice, CLP sepsis [2]; DLL4^+ neutrophils + CLP) of the same sequence?
Its value is 147.333 and 112.563 and 68.952 and 111.973 and 140.948 and 125.756 and 107.496 and 149.824 and 137.164 and 20.8187 and 17.4427 and 47.264 and 66.5947 and 58.344 and 58.9333 and 52.4507 and 35.9493.

And the “serum LDH (Figure 6C)” value (C57BL/6 mice, CLP sepsis [2]; DLL4^– neutrophils + CLP)?
Its value is 149.691 and 73.0773 and 124.349 and 178.568 and 24.752 and 44.7893 and 34.7707 and 33.0027 and 50.0933.

And the “effect on serum AST” value (C57BL/6 mice, CLP sepsis [3]; [4])?
The value was “significantly reduced the serum levels of hepatic and cell injury markers and proinflammatory cytokines”.

What about the “serum AST (Figure 6B)” value (C57BL/6 mice, CLP sepsis [3]; DLL4^+ neutrophils + CLP) of the same sequence?
Its value is 63.648 and 54.808 and 59.67 and 72.046 and 53.04 and 50.83 and 58.786 and 52.156 and 37.57 and 64.974 and 46.852 and 66.3 and 46.41 and 34.918 and 42.432 and 51.272.

And the “serum AST (Figure 6B)” value (C57BL/6 mice, CLP sepsis [3]; DLL4^– neutrophils + CLP)?
The value was 66.3 and 67.184 and 102.102 and 72.046 and 55.25 and 53.482 and 43.758 and 50.83.

And the “lung p-MLKL/MLKL (Figure 5F)” value (p-MLKL; DLL4^+ neutrophils + CLP)?
Its value is 1.846 and 1.579 and 1.945 and 1.685 and 1.856 and 1.651 and 0.9594.

What about the “effect on lung p-MLKL” value (p-MLKL; DLL4^+ neutrophils/sepsis) of the same sequence?
The value was “attenuated the expression/activation”.

And the “lung p-MLKL/MLKL (Figure 5F)” value (p-MLKL; DLL4^– neutrophils + CLP)?
The value was 1.556 and 0.2214 and 0.5541 and 0.7582 and 0.5214 and 0.9855.
